Results from patent publication US12565501B2, “Muscarinic acetylcholine M1 receptor antagonists” (Contineum Therapeutics, Inc., priority 2019, dated 2026).

Biological target: T1, human M1 receptor (Homo sapiens, UniProt P11229)
T1 sequence (P11229 1-460): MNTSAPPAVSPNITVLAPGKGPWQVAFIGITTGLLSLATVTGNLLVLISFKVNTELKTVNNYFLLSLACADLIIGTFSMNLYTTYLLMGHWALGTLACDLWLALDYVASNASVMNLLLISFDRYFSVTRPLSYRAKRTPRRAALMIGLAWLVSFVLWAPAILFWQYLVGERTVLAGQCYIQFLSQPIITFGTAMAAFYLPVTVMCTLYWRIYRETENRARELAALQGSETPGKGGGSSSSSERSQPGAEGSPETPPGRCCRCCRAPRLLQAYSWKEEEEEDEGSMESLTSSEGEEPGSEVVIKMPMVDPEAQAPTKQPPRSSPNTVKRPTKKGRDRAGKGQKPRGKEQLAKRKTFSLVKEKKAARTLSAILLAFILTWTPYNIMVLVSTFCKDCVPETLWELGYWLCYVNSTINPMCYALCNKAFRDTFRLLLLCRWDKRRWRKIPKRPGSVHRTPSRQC
Experiment: In vitro functional assay of muscarinic acetylcholine receptor activity (aequorin calcium flux, reversal of EC80 acetylcholine response)
Assay type: cell-based
Conditions: CHO-K1 cells stably expressing human M1 receptor with aequorin; acetylcholine at EC80; calcium flux (luminescence); read-out: M1 IC50
How it was run: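 Antagonist mode: compound (final 0.1% DMSO) and coelenterazine-loaded M1/aequorin CHO-K1 cells incubated 30 min in the dark before EC80 acetylcholine addition. Calcium flash integrated as 40 s luminescence AUC; IC50 derived from dose-response curves.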

Question: How did the IC50 turn out when N#Cc1ccc(N2C3CCC2CN(C(=O)COCC2(c4ccccc4)CC2)C3)nc1 [Example 187, 6-(3-(2-((1-phenylcyclopropyl)methoxy)acetyl)-3,8-diazabicyclo[3.2.1]octan-8-yl)nicotinonitrile] was run?
Answer: Its IC50 is 0.1 to 1 µM.

Question: Which IC50 does the source give for COc1cc([C@H](C)NCC(=O)N2C[C@H]3CC[C@@H](C2)N3c2ccc(C#N)cn2)ccn1 [Example 93, 6-(3-(((S)-1-(2-methoxypyridin-4-yl)ethyl)glycyl)-3,8-diazabicyclo[3.2.1]octan-8-yl)nicotinonitrile] here?
Answer: The IC50 was under 0.01 µM.

Question: Which IC50 does the source give for COc1cc([C@H](C)NCCC(=O)N2C[C@H]3CC[C@@H](C2)N3c2ccc(C#N)cn2)ccn1 [Example 22, 6-(3-(3-(((S)-1-(2-methoxypyridin-4-yl)ethyl)amino)propanoyl)-3,8-diazabicyclo[3.2.1]octan-8-yl)nicotinonitrile] here?
Answer: Its IC50 is 1 to 10 µM.

Question: Which IC50 does the source give for COc1cccc(C2(OCC(=O)N3CC4CCC(C3)N4c3ccc(C#N)cn3)CCC2)n1 [Example 253, 6-(3-(2-(1-(6-methoxypyridin-2-yl)cyclobutoxy)acetyl)-3,8-diazabicyclo[3.2.1]octan-8-yl)nicotinonitrile] here?
Answer: Its IC50 is under 0.01 µM.

Question: N#Cc1ccc(N2C3CCC2CN(C(=O)CCOC(c2cccc4ncnn24)C2CC2)C3)nc1 (racemic) [Example 309, 6-(3-(3-([1,2,4]triazolo[1,5-a]pyridin-5-yl(cyclopropyl)methoxy)propanoyl)-3,8-diazabicyclo[3.2.1]octan-8-yl)nicotinonitrile] was tested. Which IC50 did it give?
Answer: The IC50 was under 0.01 µM.

Question: How did the IC50 turn out when Cc1noc(C)c1C(F)(F)CCC(=O)N1CC2CCC(C1)N2c1ccc(C#N)cn1 [Example 126, 6-(3-(4-(3,5-dimethylisoxazol-4-yl)-4,4-difluorobutanoyl)-3,8-diazabicyclo[3.2.1]octan-8-yl)nicotinonitrile] was run?
Answer: Its IC50 is under 0.01 µM.

Question: With COc1ccncc1C1(OCC(=O)N2CC3CCC(C2)N3c2ccc(C#N)cn2)CCC1 [Example 258, 6-(3-(2-(1-(4-methoxypyridin-3-yl)cyclobutoxy)acetyl)-3,8-diazabicyclo[3.2.1]octan-8-yl)nicotinonitrile] as the compound, how does the IC50 read?
Answer: The IC50 was under 0.01 µM.

Question: Which IC50 does the source give for N#Cc1ccc(N2C3CCC2CN(C(=O)CCOC2(c4ccc(F)c(F)c4)CCC2)C3)nc1 [Example 303, 6-(3-(3-(1-(3,4-difluorophenyl)cyclobutoxy)propanoyl)-3,8-diazabicyclo[3.2.1]octan-8-yl)nicotinonitrile] here?
Answer: The IC50 was under 0.01 µM.

Question: N#Cc1ccc(N2C3CCC2CN(C(=O)COC2(c4ccc(F)cc4)CC2)C3)nc1 [Example 205, 6-(3-(2-(1-(4-fluorophenyl)cyclopropoxy)acetyl)-3,8-diazabicyclo[3.2.1]octan-8-yl)nicotinonitrile] was tested. Which IC50 did it give?
Answer: Its IC50 is 0.1 to 1 µM.

Question: With CC(OCC(=O)N1CC2CCC(C1)N2c1ccc(C#N)cn1)c1cccc2ncccc12 (racemic) [Example 192, 6-(3-(2-(1-(quinolin-5-yl)ethoxy)acetyl)-3,8-diazabicyclo[3.2.1]octan-8-yl)nicotinonitrile] as the compound, how does the IC50 read?
Answer: Its IC50 is under 0.01 µM.

Question: C[C@H](OCCC(=O)N1CC2CCC(C1)N2c1ccc(C#N)cn1)c1ccccc1 [Example 305, 6-(3-(3-((S)-1-phenylethoxy)propanoyl)-3,8-diazabicyclo[3.2.1]octan-8-yl)nicotinonitrile] was tested. Which IC50 did it give?
Answer: Its IC50 is 0.1 to 1 µM.

Question: N#Cc1ccc(N2C3CCC2CN(C(=O)CCC(F)(F)c2ccc(F)cc2)C3)nc1 [Example 124, 6-(3-(4,4-difluoro-4-(4-fluorophenyl)butanoyl)-3,8-diazabicyclo[3.2.1]octan-8-yl)nicotinonitrile] was tested. Which IC50 did it give?
Answer: The IC50 was 0.01 to 0.1 µM.

Question: CC(C)(OCC(=O)N1CC2CCC(C1)N2c1ccc(C#N)cn1)c1cccc2nccn12 (racemic) [Example 204, 6-(3-(2-((2-(imidazo[1,2-a]pyridin-5-yl)propan-2-yl)oxy)acetyl)-3,8-diazabicyclo[3.2.1]octan-8-yl)nicotinonitrile] was tested. Which IC50 did it give?
Answer: Its IC50 is 0.1 to 1 µM.

Question: For N#Cc1ccc(N2C3COCC2CN(C(=O)CNC2(c4ccc(F)cc4F)CC2)C3)nc1 [Example 78, 6-(7-((1-(2,4-difluorophenyl)cyclopropyl)glycyl)-3-oxa-7,9-diazabicyclo[3.3.1]nonan-9-yl)nicotinonitrile], which IC50 is on record?
Answer: Its IC50 is 0.1 to 1 µM.

Question: For N#Cc1ccc(N2C3CCC2CN(C(=O)COC2(c4ccc(F)c(F)c4)COC2)C3)nc1 [Example 241, (3-(2-((3-(3,4-difluorophenyl)oxetan-3-yl)oxy)acetyl)-3,8-diazabicyclo[3.2.1]octan-8-yl)nicotinonitrile], which IC50 is on record?
Answer: The IC50 was 1 to 10 µM.

Question: With N#Cc1ccc(N2C[C@@H]3C[C@H]2CN3C(=O)CNC2(c3ccc(F)cc3F)CC2)nc1 [Example 82, 6-((1S,4S)-5-((1-(2,4-difluorophenyl)cyclopropyl)glycyl)-2,5-diazabicyclo[2.2.1]heptan-2-yl)nicotinonitrile] as the compound, how does the IC50 read?
Answer: The IC50 was over 1 µM.

Question: For N#Cc1ccc(N2C3CCC2CN(C(=O)CCOCC2(c4ccccc4)CC2)C3)nc1 [Example 307, 6-(3-(3-((1-phenylcyclopropyl)methoxy)propanoyl)-3,8-diazabicyclo[3.2.1]octan-8-yl)nicotinonitrile], which IC50 is on record?
Answer: Its IC50 is 0.1 to 1 µM.

Question: Which IC50 does the source give for N#Cc1ccc(N2[C@@H]3CC[C@H]2CN(C(=O)CCNC2(c4cccnc4)CC2)C3)nc1 [Example 19, 6-(3-(3-((1-(pyridin-3-yl)cyclopropyl)amino)propanoyl)-3,8-diazabicyclo[3.2.1]octan-8-yl)nicotinonitrile] here?
Answer: The IC50 was 0.1 to 1 µM.

Question: With N#Cc1ccc(N2C[C@H]3CC[C@@H]2CN3C(=O)COC2(c3ccc(F)c(F)c3)CC2)nc1 [Example 286, 6-((1R,4R)-5-(2-(1-(3,4-difluorophenyl)cyclopropoxy)acetyl)-2,5-diazabicyclo[2.2.2]octan-2-yl)nicotinonitrile] as the compound, how does the IC50 read?
Answer: The IC50 was over 1 µM.

Question: For N#Cc1ccc(N2C3CCC2CN(C(=O)/C=C/C(F)(F)c2cccc4ncnn24)C3)nc1 [Example 148, 6-(-3-((E)-4-([1,2,4]triazolo[1,5-a]pyridin-5-yl)-4,4-difluorobut-2-enoyl)-3,8-diazabicyclo[3.2.1]octan-8-yl)nicotinonitrile], which IC50 is on record?
Answer: The IC50 was under 0.01 µM.

Question: With CC(c1ccccc1)[S+]([O-])CCC(=O)N1CC2CCC(C1)N2c1ccc(C#N)cn1 (racemic) [Example 169, 6-(3-(3-((1-phenylethyl)sulfinyl)propanoyl)-3,8-diazabicyclo[3.2.1]octan-8-yl)nicotinonitrile] as the compound, how does the IC50 read?
Answer: Its IC50 is 1 to 10 µM.

Question: How did the IC50 turn out when COc1cc(C2(NCCC(=O)N3CC4CCC(C3)N4c3ccc(C#N)cn3)CC2)ccn1 [Example 36, 6-(3-(3-((1-(2-methoxypyridin-4-yl)cyclopropyl)amino)propanoyl)-3,8-diazabicyclo[3.2.1]octan-8-yl)nicotinonitrile] was run?
Answer: The IC50 was 1 to 10 µM.

Question: For N#Cc1ccc(N2C3CC2CN(C(=O)CNC2(c4ccc(F)cc4F)CC2)C3)nc1 [Example 79, 6-(3-((1-(2,4-difluorophenyl)cyclopropyl)glycyl)-3,6-diazabicyclo[3.1.1]heptan-6-yl)nicotinonitrile], which IC50 is on record?
Answer: The IC50 was 1 to 10 µM.

Question: With CC(OCCC(=O)N1CC2CCC(C1)N2c1ccc(C#N)cn1)c1cccc2ncnn12 (racemic) [Example 308, 6-(3-(3-(1-([1,2,4]triazolo[1,5-a]pyridin-5-yl)ethoxy)propanoyl)-3,8-diazabicyclo[3.2.1]octan-8-yl)nicotinonitrile] as the compound, how does the IC50 read?
Answer: Its IC50 is under 0.01 µM.

Question: With COc1cccc(C2(NCCC(=O)N3CC4CCC(C3)N4c3ccc(C#N)cn3)CC2)c1 [Example 16, 6-(3-(3-((1-(3-methoxyphenyl)cyclopropyl)amino)propanoyl)-3,8-diazabicyclo[3.2.1]octan-8-yl)nicotinonitrile] as the compound, how does the IC50 read?
Answer: The IC50 was 0.01 to 0.1 µM.

Question: How did the IC50 turn out when N#Cc1ccc(N2C3CCC2CN(C(=O)COC2(c4ncccn4)CCC2)C3)nc1 [Example 273, 6-(3-(2-(1-(pyrimidin-2-yl)cyclobutoxy)acetyl)-3,8-diazabicyclo[3.2.1]octan-8-yl)nicotinonitrile] was run?
Answer: The IC50 was 0.1 to 1 µM.

Question: Which IC50 does the source give for Cc1ccc(N2C3CCC2CN(C(=O)CNC2(c4ccc(F)cc4F)CC2)C3)nn1 [Example 86, 2-((1-(2,4-difluorophenyl)cyclopropyl)amino)-1-(8-(6-methylpyridazin-3-yl)-3,8-diazabicyclo[3.2.1]octan-3-yl)ethan-1-one] here?
Answer: Its IC50 is 1 to 10 µM.

Question: N#Cc1ccc(N2[C@@H]3CC[C@H]2CN(C(=O)CCNC(c2cccc4ncsc24)C(F)(F)F)C3)nc1 (mixture of isomers) [Example 52, 6-(3-(3-((1-(benzo[d]thiazol-7-yl)-2,2,2-trifluoroethyl)amino)propanoyl)-3,8-diazabicyclo[3.2.1]octan-8-yl)nicotinonitrile] was tested. Which IC50 did it give?
Answer: The IC50 was under 0.01 µM.

Question: How did the IC50 turn out when COc1cc(C(F)(F)CCC(=O)N2CC3CCC(C2)N3c2ccnc(C#N)c2)ccn1 [Example 156, 4-(3-(4,4-difluoro-4-(2-methoxypyridin-4-yl)butanoyl)-3,8-diazabicyclo[3.2.1]octan-8-yl)picolinonitrile] was run?
Answer: Its IC50 is 0.1 to 1 µM.

Question: For COc1cc(C2(OCC(=O)N3CC4CCC(C3)N4c3ccc(C#N)cn3)COC2)ccn1 [Example 244, 6-(3-(2-((3-(2-methoxypyridin-4-yl)oxetan-3-yl)oxy)acetyl)-3,8-diazabicyclo[3.2.1]octan-8-yl)nicotinonitrile], which IC50 is on record?
Answer: The IC50 was 1 to 10 µM.

Question: Which IC50 does the source give for Cn1ccc(=O)c(C2(OCC(=O)N3CC4CCC(C3)N4c3ccc(C#N)cn3)CC2)c1 [Example 302, 6-(3-(2-(1-(1-methyl-4-oxo-1,4-dihydropyridin-3-yl)cyclopropoxy)acetyl)-3,8-diazabicyclo[3.2.1]octan-8-yl)nicotinonitrile] here?
Answer: The IC50 was over 1 µM.

Question: With CC(OCC(=O)N1CC2CCC(C1)N2c1ccc(C#N)cn1)c1cccc2nccnc12 (racemic) [Example 193, 6-(3-(2-(1-(quinoxalin-5-yl)ethoxy)acetyl)-3,8-diazabicyclo[3.2.1]octan-8-yl)nicotinonitrile] as the compound, how does the IC50 read?
Answer: Its IC50 is under 0.01 µM.
